Measured values as given in US4758572A, “Antiviral combinations” (Burroughs Wellcome Co., priority 1983, dated 1988).
Like-named read-outs stand apart in the source and are kept apart here.

Tested on: HSV type1 H29 Strain
Test: Yield reduction assay with HSV type 1 H29 strain
Format: cell-based, herpes simplex virus type 1
Details: read-out: ED50 (the source's name)
Description: (1) Examples of Mutual Enhancement of the Antiherpetic Activities of 2-Acetylpyridine-4-(2-morpholinoethyl)thiosemicarbazone (compound A) and Acyclovir (ACV).
^a Yield reduction assay with HSV type1 H29 Strain

Compound	EC50 (ACV with addition of 1 μM Compound A) [nM]	EC50 (Addition: none) [nM]	EC50 (Compound A with addition of 0.2 μM ACV) [nM]
Nc1nc2c(ncn2COCCO)c(=O)[nH]1 [ACV, 9-(2-hydroxyethoxymethyl)guanine]	20	600	–
CC(=NNC(=S)NCCN1CCOCC1)c1ccccn1 [Compound A, 2-Acetylpyridine-4-(2-morpholinoethyl)thiosemicarbazone]	–	5000	700
